Assays:
[1] = target: T1, Replicase polyprotein 1ab (Severe acute respiratory syndrome-related coronavirus, UniProt P0C6X7); test: Inhibition of 3C-like protease of SARS coronavirus assessed as concentration of FRET peptide for 60 mins
[2] = target: T1, Replicase polyprotein 1ab; test: Inhibition of 3C-like protease of SARS coronavirus assessed as concentration of FRET peptide for 60 mins by dixon plot

| Compound | IC50 [1] | Ki [2] |
| --- | --- | --- |
| CC1=C(O)C(=O)C=C2C1=CC=C1[C@@]2(C)CC[C@@]2(C)[C@@H]3C[C@](C)(C(=O)O)CC[C@]3(C)CC[C@]12C [CELASTROL] | 10.3 µM | 4.2 µM |
| COc1cc(/C=C/C(=O)CC(=O)/C=C/c2ccc(O)c(OC)c2)ccc1O [CURCUMIN] | 23.5 µM | – |
| Cc1c(O)c(O)cc2c1CC=C1[C@@]2(C)CC[C@@]2(C)[C@@H]3C[C@](C)(C(=O)O)CC[C@]3(C)CC[C@]12C [DIHYDROCELASTROL] | 21.7 µM | – |
| COC(=O)[C@]1(C)CC[C@]2(C)CC[C@]3(C)C4=CC=C5C(=CC(=O)C(O)=C5C)[C@]4(C)CC[C@@]3(C)[C@@H]2C1 [PRISTIMERIN] | 5.5 µM | 3.1 µM |
| CC1=C(O)C(=O)C=C2C1=CC=C1[C@@]2(C)CC[C@@]2(C)[C@@H]3C[C@@H](C)C(=O)C[C@]3(C)CC[C@]12C [TINGENONE] | 9.9 µM | 4 µM |

— ChEMBL document CHEMBL1155394, “SARS-CoV 3CLpro inhibitory effects of quinone-methide triterpenes from Tripterygium regelii” (Bioorg Med Chem Lett, 2010)
